What was measured:
[1] = Acute oral toxicity (LD50); format: in vivo; conditions: mouse, in vivo, mice, read-out: Lethal dose LD50
Experimental: The LD 50 was calculated by the method of Litchfield and Wilcoxon (J. Pharmacol. Exp. Ther., 96, 99, 1949) and is expressed in mg/kg. The products were orally administered to mice.
Behaviour was studied, 2, 4, 6 and 24 hours after treatment. Observation was continued if symptoms persisted at that time. Deaths were recorded during the 14 days after treatment. The results are given in Table II, in which the numbers of the compounds are the same as the numbers given in column 1 of Table I.

[2] = test system: accumulation of sorbitol in the crystalline lenses; experiment: Inhibition of accumulation of sorbitol in crystalline lenses of diabetic rats; format: in vivo, Sprague Dawley rats; conditions: for Inhibition of accumulation of sorbitol in vivo, crystalline lenses: oral 25 mg/kg at 0, 7 and 24 h, sacrificed 27 h; for inhibition of accumulation of sorbitol in crystalline lenses and sciatic nerves (in words): oral 25 mg/kg
Experimental: (§1) 2.1 Inhibition of accumulation of sorbitol in crystalline lenses and nerves of diabetic rats:
(§2) The effects of the products according to the invention on the proportion of plasma glucose and the accumulation of sorbitol in the crystalline lenses and sciatic nerves of rats made diabetic by streptozotocin were examined by the method of M. J. Peterson, et al (Metabolism, 28, 456-461 (1979)).
(§3) Fasted Sprague Dawley rats were made diabetic by intraperitoneal injection of streptozotocin (75 mg/kg). The product under test was orally administered at a dose of 25 mg/kg after 0, 7 and 24 hours. The rats were sacrificed 27 hours after induction of diabetes. The crystalline lenses and sciatic nerves were taken and preserved at -20° C. until analysed. The crystalline lenses and sciatic nerves were homogenized in water and the proteins were precipitated from ethanol. The precipitate was eliminated by centrifuging and the supernatant liquid was lyophylised. The sorbitol in the sample was determined by the method of B. Bjorkqvist (J. of Chromatograph, 218, 65-71 (1981)), adapted by A. Lenaers et al. (Arch. Intern. Physiol. Bioch., 91, B, 62-63 (1983)).
(§4) The sample was dissolved in pyridine containing galactitol as an internal standard. Derivatives were formed therefrom by phenylisocyanate during incubation for 1 hour at 60° C. The reaction was then stopped by adding methanol and the derivatives were separated and determined by HPLC.
(§5) The results are expressed as percentage inhibition of the accumulation of sorbitol, compared with the controls.

[3] = test system: accumulation of sorbitol in the sciatic nerves; experiment: Inhibition of accumulation of sorbitol in sciatic nerves of diabetic rats; format: in vivo, Sprague Dawley rats; conditions: oral 25 mg/kg at 0, 7 and 24 h, sacrificed 27 h
Experimental: as §1, §2, §3, §4, §5

[4] = target: T1, aldose reductase (Rattus norvegicus, UniProt P07943); experiment: Inhibition of enzymatic activity of aldose reductase in vitro; format: biochemical; conditions: 10^-4 M, rat crystalline lens enzyme, pH 6.2, D,L-glyceraldehyde substrate; read-out: Inhibition of enzymatic activity of AR in vitro
T1 construct: The supernatant liquid formed the enzyme solution used for the test; from tissue; host or cells: rat crystalline lens, water homogenate, supernatant
Source text: 1.1 Inhibiting effect on enzymatic activity of aldose reductase:
The method described by S. Hayman and J. H. Kinoshita (J. Biol. Chem., 240, 877 (1965)) was used for in vitro testing of the aforementioned effect of the products according to the invention.
Rat's crystalline lens was homogenized in water and centrifuged to eliminate insoluble substances. The supernatant liquid formed the enzyme solution used for the test.
The effect of products according to the invention in inhibiting enzymatic activity of aldose reductase was determined by spectrophotometrically following for 5 minutes the disappearance of NADPH in an aqueous solution containing 0.067M phosphate buffer (final pH: 6.2), 0.40M lithium sulphate, 5.10^-5 M NADPH, 10^-4 M of the product under test and 100 μl of the enzyme solution, to which 10^-2 M of D,L-glyceraldehyde had been added as substrate. (NADPH=reduced form of nicotinamide adenine dinucleotide phosphate).
The inhibiting effect observed in the presence of 10^-4 M of product under test relative to the reaction in the absence of a compound according to the invention, is expressed as a percentage.

**Q.** For `O=C(OCN1C(=O)N(COC(=O)c2ccccc2)C2(C1=O)c1ccccc1-c1ccccc12)c1ccccc1` [Compound 3], which LD50 at 336 h [1] is on record?
**A.** The LD50 at 336 h was over 3000 mg/kg.

**Q.** What about the “Inhibition of accumulation of sorbitol in vivo, crystalline lenses” value (from here on “Inhibition … in vivo, crystalline lenses”) [2] of the same compound?
**A.** Its value is 37%.

**Q.** What about the “Inhibition of accumulation of sorbitol in vivo, in sciatic nerves” value (“Inhibition … in sciatic nerves” for short) [3] of the same compound?
**A.** Its value is 55%.

**Q.** What does the source list for `CC(C)(C)C(=O)OCN1C(=O)N(COC(=O)C(C)(C)C)C2(C1=O)c1ccccc1-c1ccccc12` [Compound 4]?
**A.** Inhibition of accumulation of sorbitol in vivo, crystalline lenses [2]: 51%; Inhibition of accumulation of sorbitol in vivo, in sciatic nerves [3]: 50%

**Q.** For `CCCCCCCC(=O)OCN1C(=O)N(COC(=O)CCCCCCC)C2(C1=O)c1ccccc1-c1ccccc12` [Compound 6, bis-(1',3'-n.octanoyloxymethyl)-spiro-/fluorene-9,4'-imidazolidine/-2',5'-dione], which LD50 at 336 h [1] is on record?
**A.** Its LD50 at 336 h is over 3000 mg/kg.

**Q.** What about the inhibition at 100 µM [4] of the same compound?
**A.** Its inhibition at 100 µM is 0%.

**Q.** And the “Inhibition … in vivo, crystalline lenses” value [2]?
**A.** Its value is 76%.

**Q.** What about the “Inhibition … in sciatic nerves” value [3] of the same compound?
**A.** Its value is 79%.

**Q.** Which results are given for `CC(OC(=O)C(C)(C)C)N1C(=O)NC2(C1=O)c1ccccc1-c1ccccc12` (stereo not shown) [Compound 7, 1'-/1-(2,2-dimethylpropanoyloxy)-ethyl/-spiro-/fluorene-9,4'-imidazolidine/-2',5'-dione]?
**A.** Inhibition of accumulation of sorbitol in vivo, crystalline lenses [2]: 45%; Inhibition of accumulation of sorbitol in vivo, in sciatic nerves [3]: 72%

**Q.** Which LD50 at 336 h [1] does the source give for `O=C(CCCC1CCCCC1)OCN1C(=O)N(COC(=O)CCCC2CCCCC2)C2(C1=O)c1ccccc1-c1ccccc12` [Compound 8] here?
**A.** Its LD50 at 336 h is over 3000 mg/kg.

**Q.** What about the “Inhibition … in vivo, crystalline lenses” value [2] of the same compound?
**A.** Its value is 69%.

**Q.** What about the “inhibition of accumulation of sorbitol in crystalline lenses and sciatic nerves (in words)” value [2] of the same compound?
**A.** Its value is “particularly active”.

**Q.** What about the “Inhibition … in sciatic nerves” value [3] of the same compound?
**A.** The value was 85%.

**Q.** Which LD50 at 336 h [1] does the source give for `CC(C)(C)CC(=O)OCN1C(=O)N(COC(=O)CC(C)(C)C)C2(C1=O)c1ccccc1-c1ccccc12` [Compound 9] here?
**A.** Its LD50 at 336 h is over 1000 mg/kg.

**Q.** What about the “Inhibition … in vivo, crystalline lenses” value [2] of the same compound?
**A.** The value was 49%.

**Q.** And the “Inhibition … in sciatic nerves” value [3]?
**A.** Its value is 70%.

**Q.** What does the source list for `CCOC(=O)OCN1C(=O)N(COC(=O)OCC)C2(C1=O)c1ccccc1-c1ccccc12` [Compound 10, bis-(1',3'-ethoxycarbonyloxymethyl)-spiro-/fluorene-9,4'-imidazolidine/-2',5'-dione]?
**A.** LD50 at 336 h [1]: > 3000 mg/kg; Inhibition of accumulation of sorbitol in vivo, crystalline lenses [2]: 80%; inhibition of accumulation of sorbitol in crystalline lenses and sciatic nerves (in words) [2]: particularly active; Inhibition of accumulation of sorbitol in vivo, in sciatic nerves [3]: 84%

**Q.** With `O=C(CCCc1ccccc1)OCN1C(=O)N(COC(=O)CCCc2ccccc2)C2(C1=O)c1ccccc1-c1ccccc12` [Compound 11] as the compound, how does the inhibition at 100 µM [4] read?
**A.** Its inhibition at 100 µM is 0%.

**Q.** And the “Inhibition … in vivo, crystalline lenses” value [2]?
**A.** The value was 4%.

**Q.** And the “Inhibition … in sciatic nerves” value [3]?
**A.** The value was 24%.

**Q.** Which LD50 at 336 h [1] does the source give for `O=C(OCN1C(=O)N(COC(=O)C2CCCCC2)C2(C1=O)c1ccccc1-c1ccccc12)C1CCCCC1` [Compound 12] here?
**A.** The LD50 at 336 h was over 1000 mg/kg.

**Q.** What about the “Inhibition … in vivo, crystalline lenses” value [2] of the same compound?
**A.** The value was 12%.

**Q.** What about the “Inhibition … in sciatic nerves” value [3] of the same compound?
**A.** The value was 48%.

**Q.** What does the source list for `O=C(OCc1ccccc1)OCN1C(=O)N(COC(=O)OCc2ccccc2)C2(C1=O)c1ccccc1-c1ccccc12` [Compound 13]?
**A.** Inhibition of accumulation of sorbitol in vivo, crystalline lenses [2]: 33%; Inhibition of accumulation of sorbitol in vivo, in sciatic nerves [3]: 50%

**Q.** Which results are given for `O=C(COc1ccccc1)OCN1C(=O)N(COC(=O)COc2ccccc2)C2(C1=O)c1ccccc1-c1ccccc12` [Compound 14]?
**A.** LD50 at 336 h [1]: > 1000 mg/kg; Inhibition of accumulation of sorbitol in vivo, crystalline lenses [2]: 51%; Inhibition of accumulation of sorbitol in vivo, in sciatic nerves [3]: 61%

**Q.** For `CCCCC(=O)OCN1C(=O)N(COC(=O)CCCC)C2(C1=O)c1ccccc1-c1ccccc12` [Compound 15], which inhibition at 100 µM [4] is on record?
**A.** The inhibition at 100 µM was 0%.

**Q.** And the “Inhibition … in vivo, crystalline lenses” value [2]?
**A.** Its value is 54%.

**Q.** And the “Inhibition … in sciatic nerves” value [3]?
**A.** The value was 74%.

**Q.** With `O=C(OCN1C(=O)N(COC(=O)Oc2ccccc2)C2(C1=O)c1ccccc1-c1ccccc12)Oc1ccccc1` [Compound 16] as the compound, how does the LD50 at 336 h [1] read?
**A.** The LD50 at 336 h was over 3000 mg/kg.

**Q.** What about the “Inhibition … in vivo, crystalline lenses” value [2] of the same compound?
**A.** Its value is 53%.

**Q.** What about the “Inhibition … in sciatic nerves” value [3] of the same compound?
**A.** Its value is 65%.

**Q.** Which inhibition at 100 µM [4] does the source give for `COCN1C(=O)NC2(C1=O)c1ccccc1-c1ccccc12` [Compound 17, 1'-(methoxymethyl)-spiro-/fluorene-9,4'-imidazolidine/-2',5'-dione] here?
**A.** The inhibition at 100 µM was 84%.

**Q.** And the “Inhibition … in vivo, crystalline lenses” value [2]?
**A.** The value was 86%.

**Q.** And the “inhibition of accumulation of sorbitol in crystalline lenses and sciatic nerves (in words)” value [2]?
**A.** Its value is “particularly active”.

**Q.** And the “Inhibition … in sciatic nerves” value [3]?
**A.** The value was 92%.

**Q.** Which LD50 at 336 h [1] does the source give for `O=C(Nc1ccccc1)OCN1C(=O)N(COC(=O)Nc2ccccc2)C2(C1=O)c1ccccc1-c1ccccc12` [Compound 18, bis-(1',3'-N-phenylcarbamoyloxymethyl)-spiro-/fluorene-9,4'-imidazolidine/-2',5'-dione] here?
**A.** The LD50 at 336 h was over 3000 mg/kg.

**Q.** What about the “Inhibition … in vivo, crystalline lenses” value [2] of the same compound?
**A.** The value was 8%.

**Q.** What about the “Inhibition … in sciatic nerves” value [3] of the same compound?
**A.** Its value is 17%.

**Q.** What does the source list for `O=C(OCN1C(=O)N(COC(=O)C2CCCC2)C2(C1=O)c1ccccc1-c1ccccc12)C1CCCC1` [Compound 19]?
**A.** LD50 at 336 h [1]: > 3000 mg/kg; Inhibition of accumulation of sorbitol in vivo, crystalline lenses [2]: 77%; inhibition of accumulation of sorbitol in crystalline lenses and sciatic nerves (in words) [2]: particularly active; Inhibition of accumulation of sorbitol in vivo, in sciatic nerves [3]: 89%

**Q.** With `CCC(C(=O)OCN1C(=O)N(COC(=O)C(CC)c2ccccc2)C2(C1=O)c1ccccc1-c1ccccc12)c1ccccc1` (stereo not shown) [Compound 20] as the compound, how does the LD50 at 336 h [1] read?
**A.** The LD50 at 336 h was over 3000 mg/kg.

**Q.** What about the “Inhibition … in vivo, crystalline lenses” value [2] of the same compound?
**A.** The value was 60%.

**Q.** And the “Inhibition … in sciatic nerves” value [3]?
**A.** The value was 77%.

**Q.** Which results are given for `CC(=O)OCN1C(=O)NC2(C1=O)c1ccccc1-c1ccccc12` [Compound 21, 1'-(acetoxymethyl)-spiro-/fluorene-9,4'-imidazolidine/-2',5'-dione]?
**A.** LD50 at 336 h [1]: > 1000 mg/kg; inhibition at 100 µM [4]: 8%; Inhibition of accumulation of sorbitol in vivo, crystalline lenses [2]: 85%; inhibition of accumulation of sorbitol in crystalline lenses and sciatic nerves (in words) [2]: particularly active; Inhibition of accumulation of sorbitol in vivo, in sciatic nerves [3]: 94%

**Q.** What does the source list for `CNC(=O)OCN1C(=O)N(COC(=O)NC)C2(C1=O)c1ccccc1-c1ccccc12` [Compound 22]?
**A.** inhibition at 100 µM [4]: 0%; Inhibition of accumulation of sorbitol in vivo, crystalline lenses [2]: 21%; Inhibition of accumulation of sorbitol in vivo, in sciatic nerves [3]: 17%

Reference: patent US4853401A, “Spiro-hydantoins as aldose reductase inhibitors” (priority 1987, dated 1989)
